Data published in patent publication US20030158254A1, “Engineering absorption of therapeutic compounds via colonic transporters” (XenoPort, Inc., priority 2002, published 2003).

Tests used:
[1] = Uptake of compounds through the rat colon (intracolonic dosing, gabapentin in blood by LC/MS/MS); assay type: in vivo; settings: dose equivalent to 25 mg gabapentin per kg, FIG. 3A
Procedure: Rats were obtained commercially and were pre-cannulated in the both the ascending colon and the jugular vein. Animals were conscious at the time of the experiment. All animals were fasted overnight and until 4 hours post-dosing. Prodrugs were administered as a solution (in water or polyethylene glycol 400) directly into the colon via the cannula at a dose equivalent to 25 mg of gabapentin per kg. Blood samples (0.5 mL) were obtained from the jugular cannula at intervals over 8 hours and were quenched immediately by addition of acetonitrile/methanol to prevent further conversion of the prodrug. Blood samples were analyzed as described in the attached sample analysis summary.
1. In blank 1.5 mL eppendorf tubes, add 300 μL of a 50/50 mixture of acetonitrile/methanol and 20 μL of the p-chlorophenylalanine as internal standard.
2. Rat blood was collected at different time points and immediately 100 μL of blood was added into the eppendorf tube and vortex to mix.
3. 10 μL of the gabapentin standard solution (0.04, 0.2, 1, 5, 25, 100 μg/mL) was added to 90 μL of blank rat blood to make up a final calibration standard (0.004, 0.02, 0.1, 0.5, 2.5, 10 μg/mL). […]
API 2000 LC/MS/MS mass spectrometer equipped with Shidmadzu 10ADVp binary pumps and an autosampler (CTC Analytics AG, High Throughput Screening-PAL) were used in the analysis. […] The peaks were integrated by the Analyst 1.1 quantitation software.

hSMVT [2] = molecular target: T1, hSMVT (Homo sapiens, UniProt Q9Y289); test: Transport currents in SMVT-expressing Xenopus oocytes, normalized to biotin; assay type: cell-based; settings: response relative to biotin, transporter-expressing oocytes, test compound 0.5 mM
T1 sequence (Q9Y289 1-635): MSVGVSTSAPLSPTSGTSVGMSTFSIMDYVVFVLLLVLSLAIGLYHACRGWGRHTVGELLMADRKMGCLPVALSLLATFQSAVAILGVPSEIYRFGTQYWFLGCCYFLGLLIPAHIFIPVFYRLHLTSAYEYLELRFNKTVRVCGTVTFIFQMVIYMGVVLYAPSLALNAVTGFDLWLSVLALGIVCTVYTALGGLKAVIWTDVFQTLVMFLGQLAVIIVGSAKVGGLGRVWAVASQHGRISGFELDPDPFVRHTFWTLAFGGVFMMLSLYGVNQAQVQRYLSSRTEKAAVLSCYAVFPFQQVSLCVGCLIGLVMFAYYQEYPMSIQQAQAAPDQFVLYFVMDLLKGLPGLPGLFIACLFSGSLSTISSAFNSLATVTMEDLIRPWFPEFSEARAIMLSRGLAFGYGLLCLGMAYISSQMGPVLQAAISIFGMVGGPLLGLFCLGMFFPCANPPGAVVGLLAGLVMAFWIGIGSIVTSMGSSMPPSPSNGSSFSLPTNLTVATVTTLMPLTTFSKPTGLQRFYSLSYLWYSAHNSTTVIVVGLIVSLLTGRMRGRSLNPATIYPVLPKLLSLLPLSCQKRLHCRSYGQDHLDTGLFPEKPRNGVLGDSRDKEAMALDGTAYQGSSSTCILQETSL
Text: (§1) The complete open reading frame of human ATBO+(SLC6A14) and SMVT (SLC5A6) were amplified from human cDNA prepared from liver or intestine mRNA. Gene-specific oligonucleotide primers were designed against Genbank sequences (AF151978 and NM-021095). Amplified PCR products were cloned into a modified version of the mammalian expression vector pcDNA3 (termed pMO) that was engineered to contain the 5′ and 3′ untranslated regions from the Xenopus beta-globin gene. All clones were completely sequenced and tested for function by transient transfection in HEK293 cells.
cRNA for oocyte expression was prepared by linearization of plasmid cDNA and in vitro transcription using T7 polymerase (Epicentre Ampliscribe kit). Xenopus oocytes were prepared and maintained as previously described (Collins et al., PNAS […]:5456-5460 (1997)) and injected with 10-30 ng RNA. Transport currents were measured 2-6 days later using two-electrode voltage-clamp (Axon Instruments). All experiments were performed using a modified oocyte Ringers solution (90 mM NaCl, 2 mM KCl, 1.8 mM CaCl2, 1 mM MgCl2, and 10 mM Na HEPES, pH 7.4; in Na^+-free solutions 90 mM choline chloride was substituted for NaCl). The membrane potential of oocytes was held at −60 mV and current traces acquired using PowerLab software (AD Instruments). Full 7-concentration dose-responses were performed for each compound. […] Half-maximal concentrations were calculated using non-linear regression curve fitting software (Prism) with the Hill co-efficient fixed to 1. To ensure that currents were specific for the over-expressed transporter, all compounds were tested against uninjected oocytes. Since both ATBO+ and SMVT require Na^+ for transport, we confirmed transport specificity by application of the compounds in a Na^+-free solution.
In vitro transport data for selected compounds on hSMVT-expressing cells

HEK cells = test: pH assay of uptake by transporters naturally expressed in HEK cells, with and without phloretin; assay type: cell-based, human; settings: phloretin 0.5 mM, FIG. 1
Procedure: Although HEK's are a kidney derived cell line, they express some of the same transporters as the colon and can be used as a preliminary screen to identify substrates of colon-expressed transporters.
Cells were seeded at 100,000/well in 96 black, clear bottom plate overnight and washed twice in 100 μL buffer I at room temperature.
Cells were loaded with […] 2,7-bis-(2-carboxyethyl)-5-carboxyfluoroscein acetoxymethyl ester (BCECF AM) (resuspended in 50:50 dimethylsulfoxide:Pluronic™ surfactant mixture) in buffer 1 for 15 min. at 37° C. at 50 μL/well.
The rest of the protocol was performed at room temperature.
Cells were washed twice in buffer 2 at 50 μL/well. A first reading was taken in FLEX station in the buffer 2 at two sets of fluorescence excitation/emission wavelengths, 440/535 and 490/535, with 50 μL buffer/well. […] A second reading was taken in FLEX station at above settings (T0). […] A third reading was taken in FLEX station at above settings (T1). […]
For each well, values for A, B and C were calculated using the T0 and T1 data and the following equations:
A=measured fluorescence at excitation/emission wavelengths 440/535−background
B=measured fluorescence at excitation/emission wavelengths 490/535−background
The C values for the T0 and T1 data were used to determine the percent decrease in fluorescence at T1 relative to T0. […]

hSMVT [3] = molecular target: T1, hSMVT; test: Radiolabeled competition assay in SMVT-expressing CHO cells; assay type: cell-based
Text: as §1, with “Gene-specific oligonucleotide primers were designed against Genbank sequences (AF151978 and NM-021095).” left out
For cell uptake studies, stable CHOK1 clones were seeded into polylysine coated 96-well microtitre plates and grown for 2-3 days. Cells were incubated with experimental solutions (combinations of radiolabeled and unlabeled compounds) for 30 minutes at room temperature, washed four times, and lysed in scintillation solution. Accumulation of radiolabeled molecules was measured in a microtitre scintillation plate reader (Perkin Elmer). Inhibition constants (IC50s) were calculated using curve-fitting software (Prism).

Row | SMILES | Colonic uptake determined from plasma concentration of gabapentin [1] | % Max. (Biotin) (hSMVT [2]) | Uptake by HEK cells in presence and absence of transporter inhibitor phloretin (HEK cells) | IC50 (hSMVT [3])
1 | CC(C)(C)C(=O)OCOC(=O)NCC1(CC(=O)O)CCCCC1 [Compound I, gabapentin pivaloxymethyl carbamate] | taken up best | 21% | phloretin substantially inhibits uptake of Compound I | 
2 | CC(=O)OC(C)OC(=O)NCC1(CC(=O)O)CCCCC1 (stereo not drawn) [Compound IV, gabapentin acetoxyethyl carbamate] |  |  |  | 80 µM
3 | NCC1(CC(=O)O)CCCCC1 [Gabapentin, reference compound] | not taken up significantly | 0% |  | 
